# Publication PMC2989343 (Bioorganic & medicinal chemistry, 2010)
# Experiments:
# [1] = molecular target: human butyrylcholinesterase (BChE, EC 3.1.1.8) (Homo sapiens, UniProt P06276); assay: Inhibition of freshly prepared human plasma BChE; type: biochemical; settings: from 60 to 18,000 nM
# [2] = molecular target: human acetylcholinesterase (AChE, EC 3.1.1.7) (Homo sapiens, UniProt P22303); assay: Inhibition of freshly prepared human erythrocyte AChE
# [3] = test system: cholinesterase; settings: cited from earlier work
# [4] = Observation for acute cholinergically-mediated adverse effects in rat; settings: anesthetized rat, 10 mg/kg i.p.
# human acetylcholinesterase (AChE, EC 3.1.1.7), sequence (P22303 32-617 isoform P22303-2 limits assumed): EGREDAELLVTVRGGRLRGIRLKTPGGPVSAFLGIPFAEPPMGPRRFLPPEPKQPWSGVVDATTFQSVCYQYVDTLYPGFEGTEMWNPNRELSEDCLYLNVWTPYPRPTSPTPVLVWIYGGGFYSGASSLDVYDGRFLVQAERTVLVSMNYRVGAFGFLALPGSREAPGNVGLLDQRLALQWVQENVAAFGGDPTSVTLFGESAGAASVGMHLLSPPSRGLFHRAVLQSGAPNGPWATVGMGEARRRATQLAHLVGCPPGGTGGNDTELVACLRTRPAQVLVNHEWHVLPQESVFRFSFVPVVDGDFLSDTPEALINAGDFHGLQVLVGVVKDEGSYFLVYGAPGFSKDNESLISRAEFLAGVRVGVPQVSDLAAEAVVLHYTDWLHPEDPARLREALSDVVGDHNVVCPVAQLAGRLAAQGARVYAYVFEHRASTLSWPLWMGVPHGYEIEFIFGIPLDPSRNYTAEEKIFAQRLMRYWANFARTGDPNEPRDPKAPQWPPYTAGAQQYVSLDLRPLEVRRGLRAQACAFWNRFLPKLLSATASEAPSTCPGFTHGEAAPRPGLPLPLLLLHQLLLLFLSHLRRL
# human butyrylcholinesterase (BChE, EC 3.1.1.8), sequence (P06276 29-602): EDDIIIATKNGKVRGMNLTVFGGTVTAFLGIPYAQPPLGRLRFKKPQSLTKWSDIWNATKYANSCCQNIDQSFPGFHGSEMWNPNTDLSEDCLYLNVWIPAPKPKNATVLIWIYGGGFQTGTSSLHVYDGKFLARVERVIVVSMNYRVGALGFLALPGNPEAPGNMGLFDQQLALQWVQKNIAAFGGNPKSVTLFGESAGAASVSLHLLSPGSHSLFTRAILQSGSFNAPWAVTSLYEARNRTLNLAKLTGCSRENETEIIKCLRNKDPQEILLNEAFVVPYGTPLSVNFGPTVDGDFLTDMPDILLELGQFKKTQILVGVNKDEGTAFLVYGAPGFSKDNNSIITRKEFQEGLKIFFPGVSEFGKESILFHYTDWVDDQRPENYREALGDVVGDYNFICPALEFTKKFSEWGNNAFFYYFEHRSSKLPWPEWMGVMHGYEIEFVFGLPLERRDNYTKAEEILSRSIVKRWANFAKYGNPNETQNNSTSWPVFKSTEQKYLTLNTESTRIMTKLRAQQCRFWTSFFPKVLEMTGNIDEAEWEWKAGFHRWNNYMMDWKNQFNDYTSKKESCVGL
structure (smiles),measurement,setting,value
"COS(=O)(=O)[O-].C[N+](C)(C)c1cccc(OC(=O)Nc2ccccc2)c1 [Compound 6, N-Phenylcarbamate of 3-phenol-1-trimethylammonium methylsulfate]",fold decline of BChE IC50 value relative to neostigmine (3),[1],300 fold
"O=C(Nc1ccccc1)Oc1cccnc1 [Compound 7, N-Phenylcarbamate of 3-hydroxypyridine]",Selectivity A/B or B/A,"[2]; given in words only, no ratio",None
"C[n+]1cccc(OC(=O)Nc2ccccc2)c1.[Br-] [Compound 8, N-Phenylcarbamate of 3-hydroxy-1-methylpyridinium bromide]",AChE inhibitory activity (in words),"[2]; human AChE, versus pyridostigmine (4)",entire loss of AChE activity
"CNC(=O)Oc1ccc2c(c1)[C@]1(C)CCN(C)[C@@H]1N2C [Compound 9, (−)-Physostigmine]",human pharmacodynamic half-life (T1/2),[3],30 min
"CC(C)c1ccc(NC(=O)Oc2ccc3c(c2)[C@]2(C)CC[N+](C)(C)C2N3C)cc1.[Br-] (stereo partly drawn) [Compound 16, N(1)-Methylammonium bromide of (−)-cymserine]",central (tremor) or peripheral (lacrimation and salivation) cholinergically-mediated adverse effects,[4],No central (tremor) or peripheral (lacrimation and salivation) cholinergically-mediated adverse effects were evident
